Measurements reported in patent publication US20260335205A1, “ACTIVE AGENT MODULATING THE ACTIVITY OF AN ION CHANNEL FOR USE IN REGULATION OF SKIN PIGMENTATION” (priority 2022, published 2026).

Experiments:
[1] = system: epidermal melanin content in human skin organ culture; experiment: Epidermal melanin content (Warthin-Starry / Fontana Masson histochemistry, quantitative histomorphometry) in ex vivo human skin organ culture; format: cell-based
Procedure: (§1) Samples of human abdominal, temporal, and occipital skin were obtained with written patient consent and under ethical approval from healthy adult human subjects during elective plastic surgery performed for cosmetic reasons. Full-thickness human skin samples were prepared as 4-6 mm punches, placed on filter paper, and cultured at the air-liquid interphase under serum-free conditions in William's E medium supplemented only with insulin, hydrocortisone and L-glutamine, as described previously.
For topical application of menthol (Sigma), a TRPM8 activator, a stock (5 M) was prepared in ethanol and dissolved at 37 °C at a final concentration of 1 mM in a 30% v/v solution of Polyethylene glycol 6000 (Sigma) in ethanol. For topical application of N-(3-Aminopropyl)-2-[(3-methylphenyl)methoxy]-N-(2-thienylmethyl)benzamide hydrochloride (AMTB) (Sigma), an TRPM8 inhibitor, a stock (50 mM) was prepared in water and dissolved at 37 °C at a final concentration of 10 μM in a 30% v/v solution of Polyethylene glycol 6000 (Sigma) in ethanol. Two μL droplets of this viscous solution containing menthol (1 mM), AMTB (10 μM), their combination, or ethanol as vehicle control were applied daily (up to 3 days) to the epidermis of skin biopsies.
Histochemical visualization of melanin in skin sections was performed using the Warthin-Starry Stain Kit (Abcam) or Fontana Masson histochemistry. For Warthin-Starry histochemistry, formalin-fixed human skin/HF frozen sections were rinsed in distilled water and incubated with AgNO3(0.5 % in acidulated water) for 30 seconds at 50 °C. Next, the sample was incubated with developer solution (0.42% AgNO3, 5% Gelatin, and 0.15% hydroquinone in acidulated water) and incubated for 2-5 minutes at 50 °C. The reaction was stopped by consecutive rinses in hot (60 °C) tap water for 2 minutes. Incubation with Na2S2O3 (5 % in distilled water) for 1 minute, followed by 3 minutes of consecutive washes in tap water can also be used to remove unbound AgNO3 and to tone the brown coloring of melanin black. Brief counterstain with hematoxylin was used to visualize nuclei. […]
Images were then obtained with a digital microscope (Keyence). Quantitative histomorphometric analysis was performed by assessing the relative intensity and the area of melanin stain in standardized reference areas with ImageJ (NIH; Bethesda, MD, USA). Briefly, for each parameter evaluated, multiple non-consecutive skin sections (at least 280 μm apart from each other) per punch biopsy were stained. Two skin punch biopsies were analyzed per experimental group unless indicated otherwise. The melanin content was then calculated based on the product of the fraction of area occupied by melanin and the mean shade of gray of the melanin, as described in detail elsewhere. […]

gp100 = experiment: gp100-specific immunoreactivity (immunohistochemistry, quantitative histomorphometry) in ex vivo human skin organ culture; format: cell-based; settings: after 3 days
Procedure: as §1
For topical application of menthol (Sigma), a TRPM8 activator, a stock (5 M) was prepared in ethanol and dissolved at 37 °C at a final concentration of 1 mM in a 30% v/v solution of Polyethylene glycol 6000 (Sigma) in ethanol. […]
After consecutive rinses in PBS, samples were incubated with rhodamine-conjugated secondary antibody (Jackson ImmunoResearch) diluted 1:200 in normal goat serum (2% in PBS) for 45 minutes at RT. […] Image acquisition and quantitative histomorphometric analysis were performed similar to as described for the Warthin-Starry technique, with a special emphasis on assessing the relative intensity and the area of gp100-specific immunoreactivity (IR) in the basal epidermal layer (i.e., the epidermal compartment where melanocytes reside).

tyrosinase = experiment: In situ tyrosinase activity (quantitative histomorphometry) in ex vivo human skin organ culture; format: cell-based; settings: after 3 days
Procedure: as §1, with “previously. […]” for “previously.”
For the in situ detection of tyrosinase activity (the enzyme that catalyzes the rate-limiting step of melanin synthesis), human skin cryosections were fixed in an acetone/methanol solution (1:1 ratio) and blocked with H2O2 (0.3 % in PBS) for 15 minutes. […] Tyrosinase activity was detected with the TSA™ Biotin System (Akoya Biosciences). […]
Image acquisition and quantitative histomorphometric analysis were performed similar to as described for the Warthin-Starry technique, with a special emphasis on assessing the relative intensity and the area of tyrosinase activity-specific immunoreactivity (IR) in the basal epidermal layer (i.e., the epidermal compartment where melanocytes reside).

melanocyte tyrosinase = settings: background, phenolic compounds (e.g., hydroquinone and derivatives); cited from earlier work
[2] = background; cited from earlier work
[3] = topical menthol 1 mM, after 3 days, vs vehicle, Warthin-Starry (FIG. 1)

## CC1CCC(C(C)C)C(O)C1 (centres unmarked) [menthol]
[1]; [3]
  epidermal melanin content: markedly increases epidermal melanin content
  melanin content in basal and suprabasal layers: increased the melanin content not only in the basal layer (i.e., the epidermal compartment where melanocytes reside) but also in the suprabasal layers
[1]; topical, human ex vivo skin organ cultures
  epidermal melanin content verified by two independent histochemical technologies: upregulated epidermal melanin content
gp100; topical menthol 1 mM, vs vehicle (FIG. 2)
  intensity level of gp100-specific IR in the basal epidermal layers: markedly increases the intensity level of gp100-specific IR in the basal epidermal layers
tyrosinase; topical menthol 1 mM, vs vehicle (FIG. 3)
  intensity level of tyrosinase activity in the basal epidermal layers: markedly increases the intensity level of tyrosinase activity in the basal epidermal layers

## Oc1ccc(O)cc1 [hydroquinone]
Melanocyte tyrosinase
  inhibition of melanocyte tyrosinase: shown to inhibit melanocyte tyrosinase
[2]
  DNA damage: shown to cause DNA damage
  chronic adverse effects: contact dermatitis, sclera and nail hyperpigmentation, impaired wound healing

## Cc1cccc(COc2ccccc2C(=O)N(CCCN)Cc2cccs2)c1.Cl [AMTB, N-(3-Aminopropyl)-2-[(3-methylphenyl)methoxy]-N-(2-thienylmethyl)benzamide hydrochloride]
[1]; topical AMTB 10 μM with menthol 1 mM, after 3 days, vs vehicle, Warthin-Starry (FIG. 4)
  prevention of menthol-induced increase of epidermal melanin content: prevented the effect of the TRPM8 agonist menthol (1 mM) to increase epidermal melanin content
gp100; topical AMTB 10 μM with menthol 1 mM, vs vehicle (FIG. 5)
  prevention of menthol-induced increase of gp100-specific IR in the basal epidermal layers: prevented the effect of the TRPM8 agonist menthol (1 mM) to increase gp100-specific IR in the basal epidermal layers
tyrosinase; topical AMTB 10 μM with menthol 1 mM, vs vehicle (FIG. 6)
  prevention of menthol-induced increase of tyrosinase activity in the basal epidermal layers: prevented the effect of the TRPM8 agonist menthol (1 mM) to increase tyrosinase activity in the basal epidermal layers
